Patent publication US6358885B1, “Substituted phenylheterocyclic herbicides” (Mississippi State University, priority 1992, dated 2002)

Experiments:
Assay in all cases: Test B preemergence/postemergence greenhouse plant response rating 0 to 10
giant foxtail = type: in vivo, Setaria faberii; conditions: 0 to 10 scale
How it was run: (§1)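 Both application timings were run together: seeds got compound preemergence, and established seedlings (two to eighteen cm) got it postemergence. Non-phytotoxic solvent carried the chemical. Ratings are visual, versus controls, at twelve to sixteen days.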

barnyardgrass = type: in vivo, Echinochloa crus-galli; conditions: for Plant response rating, Barnyardgrass: 0 to 10 scale
How it was run: as §1

wild oat = type: in vivo, Avena fatua; conditions: 0 to 10 scale
How it was run: as §1

wild buckwheat = type: in vivo, Polygonum convolvulus; conditions: 0 to 10 scale
How it was run: as §1

purple nutsedge = type: in vivo, Cyperus rotundus; conditions: 0 to 10 scale
How it was run: as §1

crabgrass = type: in vivo, Digitaria spp.; conditions: for Plant response rating, Crabgrass: 0 to 10 scale
How it was run: as §1

cocklebur = type: in vivo, Xanthium pensylvanicum; conditions: for Plant response rating, Cocklebur: 0 to 10 scale
How it was run: as §1

lambsquarters = type: in vivo, Chenopodium album; conditions: 0 to 10 scale
How it was run: as §1

Structure (SMILES)	Plant response rating, Giant foxtail (giant foxtail; POSTEMERGENCE, Rate 50 g/ha)	Plant response rating, Giant foxtail (giant foxtail; POSTEMERGENCE, Rate 200 g/ha)	Plant response rating, Giant foxtail (giant foxtail; PREEMERGENCE, Rate 50 g/ha)	Plant response rating, Giant foxtail (giant foxtail; Rate 200 g/ha, PREEMERGENCE)	Plant response rating (0 to 10 scale), Barnyardgrass (barnyardgrass; POSTEMERGENCE, Rate 50 g/ha)	Plant response rating, Barnyardgrass (barnyardgrass; POSTEMERGENCE, Rate 200 g/ha)	Plant response rating, Barnyardgrass (barnyardgrass; PREEMERGENCE, Rate 50 g/ha)	Plant response rating, Barnyardgrass (barnyardgrass; Rate 200 g/ha, PREEMERGENCE)	Plant response rating, Wild oat (wild oat; POSTEMERGENCE, Rate 50 g/ha)	Plant response rating, Wild oat (wild oat; POSTEMERGENCE, Rate 200 g/ha)	Plant response rating, Wild oat (wild oat; Rate 200 g/ha, PREEMERGENCE)	Plant response rating, Wild buckwheat (wild buckwheat; POSTEMERGENCE, Rate 50 g/ha)	Plant response rating, Wild buckwheat (wild buckwheat; POSTEMERGENCE, Rate 200 g/ha)	Plant response rating, Wild buckwheat (wild buckwheat; Rate 200 g/ha, PREEMERGENCE)	Plant response rating, Nutsedge (purple nutsedge; POSTEMERGENCE, Rate 50 g/ha)	Plant response rating, Nutsedge (purple nutsedge; POSTEMERGENCE, Rate 200 g/ha)	Plant response rating, Nutsedge (purple nutsedge; Rate 200 g/ha, PREEMERGENCE)	Plant response rating (0 to 10 scale), Crabgrass (crabgrass; POSTEMERGENCE, Rate 50 g/ha)	Plant response rating, Crabgrass (crabgrass; POSTEMERGENCE, Rate 200 g/ha)	Plant response rating, Crabgrass (crabgrass; PREEMERGENCE, Rate 50 g/ha)	further results
Clc1ccc(-c2nc3n(c2Cl)CCC=C3)c(Cl)c1 [Compound 1]	3	3	0	0	2	3	0	0	2	2	0	5	9	0	0	0	0	2	3	0	Plant response rating, Crabgrass (crabgrass; Rate 200 g/ha, PREEMERGENCE): 0; Plant response rating (0 to 10 scale), Cocklebur (cocklebur; POSTEMERGENCE, Rate 50 g/ha): 4; Plant response rating, Cocklebur (cocklebur; POSTEMERGENCE, Rate 200 g/ha): 4; Plant response rating, Cocklebur (cocklebur; PREEMERGENCE, Rate 50 g/ha): 0; Plant response rating, Cocklebur (cocklebur; Rate 200 g/ha, PREEMERGENCE): 0; Plant response rating, Lambsquarter (lambsquarters; POSTEMERGENCE, Rate 50 g/ha): 4; Plant response rating, Lambsquarter (lambsquarters; POSTEMERGENCE, Rate 200 g/ha): 7; Plant response rating, Lambsquarter (lambsquarters; PREEMERGENCE, Rate 50 g/ha): 0; Plant response rating, Lambsquarter (lambsquarters; Rate 200 g/ha, PREEMERGENCE): 0
Fc1cc(Cl)c(OC2CCCC2)cc1-c1nn2c(c1Cl)CCCC2 [Compound 24]	4	5	3	8	4	6	1	4	3	4	2	10	10	5	3	4	0	5	5	0	Plant response rating, Wild buckwheat (wild buckwheat; PREEMERGENCE, Rate 50 g/ha): 3; Plant response rating, Nutsedge (purple nutsedge; PREEMERGENCE, Rate 50 g/ha): 0; Plant response rating, Crabgrass (crabgrass; Rate 200 g/ha, PREEMERGENCE): 7; Plant response rating (0 to 10 scale), Cocklebur (cocklebur; POSTEMERGENCE, Rate 50 g/ha): 8; Plant response rating, Cocklebur (cocklebur; POSTEMERGENCE, Rate 200 g/ha): 9; Plant response rating, Cocklebur (cocklebur; PREEMERGENCE, Rate 50 g/ha): 0; Plant response rating, Cocklebur (cocklebur; Rate 200 g/ha, PREEMERGENCE): 1; Plant response rating, Lambsquarter (lambsquarters; POSTEMERGENCE, Rate 50 g/ha): 9; Plant response rating, Lambsquarter (lambsquarters; POSTEMERGENCE, Rate 200 g/ha): 10; Plant response rating, Lambsquarter (lambsquarters; PREEMERGENCE, Rate 50 g/ha): 9; Plant response rating, Lambsquarter (lambsquarters; Rate 200 g/ha, PREEMERGENCE): 10
Fc1cc(Cl)c(OCc2ccccc2)cc1-c1nn2c(c1Cl)CCCC2 [Compound 22]	3	4	3	9	3	5	2	5	3	3	1	10	10	5	2	2	0	3	2	2	Plant response rating, Wild buckwheat (wild buckwheat; PREEMERGENCE, Rate 50 g/ha): 2; Plant response rating, Nutsedge (purple nutsedge; PREEMERGENCE, Rate 50 g/ha): 0; Plant response rating, Crabgrass (crabgrass; Rate 200 g/ha, PREEMERGENCE): 4; Plant response rating (0 to 10 scale), Cocklebur (cocklebur; POSTEMERGENCE, Rate 50 g/ha): 7; Plant response rating, Cocklebur (cocklebur; POSTEMERGENCE, Rate 200 g/ha): 8; Plant response rating, Cocklebur (cocklebur; PREEMERGENCE, Rate 50 g/ha): 0; Plant response rating, Cocklebur (cocklebur; Rate 200 g/ha, PREEMERGENCE): 1; Plant response rating, Lambsquarter (lambsquarters; POSTEMERGENCE, Rate 50 g/ha): 8; Plant response rating, Lambsquarter (lambsquarters; POSTEMERGENCE, Rate 200 g/ha): 10; Plant response rating, Lambsquarter (lambsquarters; PREEMERGENCE, Rate 50 g/ha): 6; Plant response rating, Lambsquarter (lambsquarters; Rate 200 g/ha, PREEMERGENCE): 9
